Tests used:
[1] = target: CDK2/Cyclin A2 (Homo sapiens) (UniProt P24941+P20248); assay: Inhibition of CDK2/Cyclin A2 (unknown origin) at 1 uM preincubated for 10 mins followed by substrate addition and measured after 60 mins in the presence of ATP by ADP-Glo reagent based luminescence assay relative to control; assay type: protein-complex assay; settings: time 70.0 min
[2] = target: Cyclin-dependent kinase 2/cyclin E1 (Homo sapiens) (UniProt P24864+P24941); assay: Inhibition of CDK2/Cyclin E1 (unknown origin) at 1 uM preincubated for 10 mins followed by substrate addition and measured after 60 mins in the presence of ATP by ADP-Glo reagent based luminescence assay relative to control; assay type: protein-complex assay; settings: time 70.0 min
[3] = target: CDK6/cyclin D1 (Homo sapiens) (UniProt P24385+Q00534); assay: Inhibition of CDK6/Cyclin D1 (unknown origin) at 1 uM preincubated for 10 mins followed by substrate addition and measured after 60 mins in the presence of ATP by ADP-Glo reagent based luminescence assay; assay type: protein-complex assay; settings: time 70.0 min
[4] = AUC(0 to infinity) in Sprague-Dawley rat at 5 mg/kg, iv by HPLC-UV analysis; assay type: ADME, organism-based; parameters: dose 5 mg/kg, route iv; settings: in vivo

CC(C)(C)CNc1ncc(Br)c(Nc2ccccc2C(N)=O)n1
inhibition [1]: 36.1% | inhibition [2]: 60.3% | inhibition [3]: 17% | AUC(0-inf) [4]: 868 ng·h/mL
